Data taken from article PMC7766758, “Furan-Conjugated Tripeptides as Potent Antitumor Drugs” (Biomolecules, 2020).
Values after ≈ are worked out from the molar mass of the structure shown. “Also recorded” adds a separate entry of the source. Like-named read-outs stand apart in the source and are kept apart here. Square brackets hold non-standard residues; d marks the D form. Side chains are listed from the residue outwards. Peptide text beside a SMILES is read from it. * marks the point of attachment. 2Nal = N[C@@H](Cc1ccc2ccccc2c1)C(=O)O; 2Furoyl = O=C(c1ccco1)*

How the values were obtained:
[1] = test system: human cervical cancer cells HeLa; assay: Anti-proliferative assay (MTT or resazurin), HeLa; format: cell-based; settings: for IC50 ± SD (µg/mL), proliferation of HeLa cells / IC50: 48 h
Procedure: The anti-proliferative effect of peptides was tested using various normal and cancer cells. Human cancer cells used were human cervical cancer cells HeLa (ATCC® CCL-2), and human breast cancer cells MCF-7 (ATCC® HTB22) and MDA-MB-231 (ATCC® HTB-26). Normal cells used were NIH-3T3 (ATCC® CRL-1658), human normal endothelial cells (human umbilical vein endothelial cells, HUVEC) (ECACC, Sigma-Aldrich, Lyon, France), and human lung fibroblasts IMR-90 (ATCC® CCL186). NIH-3T3, HeLa, IMR-90, MDA-MB-231, and MCF-7 cells were grown in DMEM supplemented with 10% fetal bovine serum (FBS), 1% L-glutamine, and 1% antibiotics (all from Invitrogen (Carlsbad, CA, USA)). HUVEC cells were cultured in specific medium (endothelial cell growth medium from Sigma Aldrich, Lyon, France). Cells were routinely grown on 25 cm^2 flasks. For anti-proliferative assay, cells were detached from flasks using a trypsin-EDTA solution (from Thermofisher, Illkirch-Graffenstaden, France). After counting using a Malassez chamber, cells were diluted in appropriate culture media and seeded into 96-well cell culture plates (Greiner bio-one, Paris, France) at approximately 6000 cells/well. Cells were then treated with increasing concentration of conjugates diluted in appropriate medium. Doxorubicin was used as positive control. After 48 h medium was aspirated and the number of viable cells was colorimetrically measured as previously described. Briefly, after exposure to increasing concentrations of conjugates or doxorubicin for 48 h, cell viability was measured using the standard MTT or resazurin assay. For the MTT assay, the supernatant was discarded and 50 µL of 0.5 mg/mL MTT dye was then added to each well and plates were further incubated for 4 h at 37 °C. The MTT was aspirated and 100 µL of DMSO was then added to each well. The extent of MTT reduction to formazan in cells was calculated by measuring the absorbance at 540 nm, using a spectrophotometer (Spectra Max plus, Molecular Devices, CA, USA). For the resazurin assay, the supernatant was discarded and 100 µL of resazurin solution (from Sigma Aldrich, Lyon, France) was added to each well. After 4 h of incubation at 37 °C, fluorescence associated to resazurin biotransformation by live cells was measured using spectrofluorometer (excitation 530 nm/emission 590 nm). In both cases, the antiproliferative activity was recorded as concentration causing 50% growth inhibition (IC50). Experiment was performed in triplicate (n = 3).

HeLa cells [2] = assay: Rhodamine 123 and propidium iodide staining assay; format: cell-based, human
Procedure: As mentioned above, HeLa cells were grown in DMEM medium and seeded 3000 cells/well into 96-well plates. A stock solution of rhodamine 123 (Sigma-Aldrich, St Louis, MO, USA) and prodidium iodide (Sigma-Aldrich, St Louis, MO, USA) at concentrations of 10 and 1 mg/mL were prepared in pure DMSO and water, respectively.
The next day, 1 mL of the fresh media with 2% FBS was made, in which rhodamine 123 and propidium iodide dyes were added to make final concentrations of 10 and 5 µg/mL, respectively. Compounds 4, 4a, and 4b at four different concentrations (10, 20, 30, and 40 µg/mL) were mixed with 1 mL of this media. Old media from the plates were aspirated from each well and 200 µL of fresh media containing compounds, rhodamine 123, and PI dye were added in their respective wells in triplicate and incubated at 37 °C in a 5% CO2 incubator. After 1 and 2 h incubation, media was aspirated from the wells and washed with PBS. These cells were visualized for rhodamine 123 and PI dye staining in a Nikon Eclipse TE2000-U fluorescence microscope at 200× magnification in FITC and TXR filters respectively. Images of cells at the same location for both dyes were captured. Rhodamine 123 and PI staining give green and red fluorescence, respectively. These two different colored images were then merged with one another using ImageJ software (NIH, Bethesda, MD, USA).

[3] = test system: HUVEC (human umbilical vein endothelial cells)
Procedure: (§1) The anti-proliferative effect of peptides was tested using various normal and cancer cells. […] Normal cells used were NIH-3T3 (ATCC® CRL-1658), human normal endothelial cells (human umbilical vein endothelial cells, HUVEC) (ECACC, Sigma-Aldrich, Lyon, France), and human lung fibroblasts IMR-90 (ATCC® CCL186). NIH-3T3, HeLa, IMR-90, MDA-MB-231, and MCF-7 cells were grown in DMEM supplemented with 10% fetal bovine serum (FBS), 1% L-glutamine, and 1% antibiotics (all from Invitrogen (Carlsbad, CA, USA)). HUVEC cells were cultured in specific medium (endothelial cell growth medium from Sigma Aldrich, Lyon, France). Cells were routinely grown on 25 cm^2 flasks. For anti-proliferative assay, cells were detached from flasks using a trypsin-EDTA solution (from Thermofisher, Illkirch-Graffenstaden, France). After counting using a Malassez chamber, cells were diluted in appropriate culture media and seeded into 96-well cell culture plates (Greiner bio-one, Paris, France) at approximately 6000 cells/well. Cells were then treated with increasing concentration of conjugates diluted in appropriate medium. Doxorubicin was used as positive control. […] Briefly, after exposure to increasing concentrations of conjugates or doxorubicin for 48 h, cell viability was measured using the standard MTT or resazurin assay. For the MTT assay, the supernatant was discarded and 50 µL of 0.5 mg/mL MTT dye was then added to each well and plates were further incubated for 4 h at 37 °C. The MTT was aspirated and 100 µL of DMSO was then added to each well. The extent of MTT reduction to formazan in cells was calculated by measuring the absorbance at 540 nm, using a spectrophotometer (Spectra Max plus, Molecular Devices, CA, USA). For the resazurin assay, the supernatant was discarded and 100 µL of resazurin solution (from Sigma Aldrich, Lyon, France) was added to each well. After 4 h of incubation at 37 °C, fluorescence associated to resazurin biotransformation by live cells was measured using spectrofluorometer (excitation 530 nm/emission 590 nm). […]

[4] = test system: human breast cancer cells MDA-MB-231; assay: Anti-proliferative assay, MDA-MB-231; format: cell-based
Procedure: Cells were routinely grown on 25 cm^2 flasks. […] Doxorubicin was used as positive control. […] Experiment was performed in triplicate (n = 3).

[5] = test system: IMR-90 (normal human fibroblasts)
Procedure: as §1

[6] = test system: human breast cancer cells MCF-7
Procedure: as §1

[7] = test system: mice normal 3T3 fibroblasts cells
Procedure: as §1

HeLa cells [8] = assay: Atomic force microscopy of HeLa cells; format: cell-based, human; settings: 20 µg/mL, 24 h
Procedure: HeLa cells were grown in Dulbecco’s modified eagle medium (DMEM) supplemented with 10% fetal bovine serum. After 70–80% confluency was achieved, cells were treated with conjugate 4 at 20 µg/mL and incubated for 24 h at 37 °C in a 5% CO2 incubator. The next day, these cells were visualized using a microscope. In the untreated control, cells were healthy and attached, therefore, the cells were trypsinized to detach the cells from the wells, and then collected in a sterile Eppendorf tube. In conjugate 4 treated wells, cells were dead and detached. These dead cells were freely floating and therefore the cells were collected without using the trypsinization process in an Eppendorf tube. These cells collected in Eppendorf tubes were washed twice with sterile distilled water and then 10 µL of suspension was deposited into mica chips coated with 0.01% poly-L-lysine, to allow the cells attachment. This cell suspension was then dried at room temperature. Soon after, these mica chips were inserted inside an Agilent Technologies 5500 microscope and the chips were scanned at tapping mode with a silicon nitride cantilever. After finding cells in the chips, these cells were further scanned under a higher magnification. Atomic force microscopy (AFM) topography images were obtained, and we processed them in pseudo color images to differentiate the images according to the height. […]

[9] = test system: mice normal 3T3 fibroblasts cells; assay: cells; settings: Mus musculus, Fibroblast, 48 h, read-out: IC50 (µg/mL) 3T3
Procedure: as §1

[10] = test system: human breast cancer cells MCF-7; assay: cells; settings: MCF7, 48 h, read-out: IC50 (µg/mL) MCF-7
Procedure: as §1

[11] = test system: IMR-90 (normal human fibroblasts); assay: cells; settings: IMR-90, 48 h, read-out: IC50 (µg/mL) IMR-90
Procedure: as §1

[12] = test system: HUVEC (human umbilical vein endothelial cells); assay: cells; settings: 48 h, read-out: IC50 (µg/mL) HUVEC
Procedure: as §1

[13] = HeLa cells, MTT or resazurin, triplicate
[14] = HeLa cells, MTT or resazurin, read-out: IC50 ± SD (µM), proliferation of HeLa cells

C[C@H](NC(=O)[C@H](Cc1ccc2ccccc2c1)NC(=O)[C@H](Cc1ccccc1)NC(=O)c1ccco1)C(N)=O [Conjugate 6, 2-Fur^4-L-Phe^3-L-2-Nal^2-L-Ala^1-CONH2]
IC50 ± SD (µg/mL), proliferation of HeLa cells [1, 13]: 10.4 ± 0.10 µg/mL
IC50 [1, 14]: 19.74 ± 0.18 µM

C[C@H](NC(=O)c1ccco1)C(=O)N[C@@H](Cc1ccc2ccccc2c1)C(=O)N[C@@H](Cc1ccccc1)C(N)=O [Conjugate 7, 2-Fur^4-L-Ala^3-L-2-Nal^2-L-Phe^1-CONH2]
IC50 ± SD (µg/mL), proliferation of HeLa cells [1, 13]: >100 µg/mL
IC50 [1, 14]: > 100 µM

C[C@H](NC(=O)[C@H](Cc1ccc2ccccc2c1)NC(=O)c1ccco1)C(=O)N[C@@H](Cc1ccccc1)C(N)=O [Conjugate 4, 2-Fur^4-L-2-Nal^3-L-Ala^2-L-Phe^1-CONH2]
rhodamine 123 fluorescence (mitochondrial membrane potential, MMP) (HeLa cells [2]; HeLa, 40 µg/mL, 1 or 2 h treatment): loss of mitochondrial membrane potential; also recorded: totally suppressed rhodamine fluorescence
PI dye fluorescence (membrane permeabilization) (HeLa cells [2]; HeLa, 20, 30 and 40 µg/mL, 1 or 2 h): increased
antiproliferative activity on HUVEC (in words) [3]: did not inhibit the proliferation
IC50 (µg/mL) HUVEC ([3]; 48 h, mean ± SD of triplicates): >100 µg/mL
antiproliferative activity on MDA-MB-231 (in words) [4]: did not inhibit the proliferation
IC50 (µg/mL) MDA-MB-231 ([4]; MDA-MB-231, 48 h, mean ± SD of triplicates): >100 µg/mL
antiproliferative activity on MDA-MB-231 (in words) ([4]; listed as conjugate 4): inactive; also recorded: no effect
antiproliferative activity on IMR-90 (in words) ([5]; IMR-90): did not inhibit the proliferation
IC50 (µg/mL) IMR-90 ([5]; IMR-90, 48 h, mean ± SD of triplicates): >100 µg/mL
antiproliferative activity on MCF-7 (in words) ([6]; MCF-7): did not inhibit the proliferation
IC50 (µg/mL) MCF-7 ([6]; MCF-7, 48 h, mean ± SD of triplicates): >100 µg/mL
IC50 [1]: 0.28 ± 0.09 µM
IC50 ± SD (µg/mL), proliferation of HeLa cells [1]: 0.15 ± 0.05 µg/mL
antiproliferative activity on 3T3 cells (in words) ([7]; 3T3): did not inhibit the proliferation
IC50 (µg/mL) 3T3 ([7]; 3T3, 48 h, mean ± SD of triplicates): >100 µg/mL
effect on HeLa cell membrane seen by AFM (HeLa cells [8]): membranolytic effect; also recorded: membranolytic affect

C[C@H](NC(=O)c1ccco1)C(=O)N[C@@H](Cc1ccccc1)C(=O)N[C@@H](Cc1ccc2ccccc2c1)C(N)=O [Conjugate 8, 2-Fur^4-L-Ala^3-L-Phe^2-L-2-Nal^1-CONH2]
IC50 ± SD (µg/mL), proliferation of HeLa cells [1, 13]: 29.1 ± 2.8 µg/mL
IC50 [1, 14]: 55.3 ± 5.31 µM

C[C@H](NC(=O)[C@H](Cc1ccccc1)NC(=O)[C@H](Cc1ccc2ccccc2c1)NC(=O)c1ccco1)C(N)=O [Conjugate 2, 2-Fur^4-L-2-Nal^3-L-Phe^2-L-Ala^1-CONH2]
IC50 ± SD (µg/mL), proliferation of HeLa cells [1, 13]: 4.40 ± 0.20 µg/mL
IC50 [1, 14]: 8.35 ± 0.37 µM

COc1cccc2c1C(=O)c1c(O)c3c(c(O)c1C2=O)C[C@@](O)(C(=O)CO)C[C@@H]3O[C@H]1C[C@H](N)[C@H](O)[C@H](C)O1 [Doxorubicin]
IC50 ([4]; Homo sapiens, MDA-MB-231, 48 h, mean ± SD of triplicates): 0.21 ± 0.03 µg/mL (≈ 0.386 µM)
IC50 [9]: < 1 µg/mL
IC50 [10]: 0.01 ± 0.005 µg/mL (≈ 0.0184 µM)
IC50 ([1]; Homo sapiens, HeLa cells, MTT or resazurin, triplicate, read-out: IC50 ± SD (µg/mL), proliferation of HeLa cells): 3.09 ± 0.16 µg/mL
IC50 [11]: 0.06 ± 0.01 µg/mL (≈ 0.11 µM)
IC50 [12]: 0.02 ± 0.005 µg/mL (≈ 0.0368 µM)

C[C@H](NC(=O)[C@@H](NC(=O)[C@H](Cc1ccc2ccccc2c1)NC(=O)c1ccco1)c1ccccc1)C(N)=O [Conjugate 10, 2-Fur^4-L-2-Nal^3-L-Phg^2-L-Ala^1-CONH2]
IC50 ± SD (µg/mL), proliferation of HeLa cells [1, 13]: 4.70 ± 0.60 µg/mL
IC50 [1, 14]: 9.16 ± 1.17 µM

C[C@H](NC(=O)[C@H](Cc1ccc2ccccc2c1)NC(=O)c1ccco1)C(=O)N[C@@H](Cc1ccccc1)C(=O)NCCCC[C@H](NC(=O)[C@H](Cc1ccccc1)NC(=O)[C@H](C)NC(=O)[C@H](Cc1ccc2ccccc2c1)NC(=O)c1ccco1)C(N)=O [Conjugate 4b] (2Furoyl-[2Nal]AFK([Phe-Ala-2Nal-2Furoyl])-NH2)
effect on MMP or membrane integrity of HeLa cells (rhodamine 123 / PI) (HeLa cells [2]; HeLa, data not shown): do not affect MMP or the membrane integrity
antiproliferative activity against HeLa cells (in words) ([1]; HeLa cells): inactive
IC50 ± SD (µg/mL), proliferation of HeLa cells [1, 13]: > 100 µg/mL

C[C@H](NC(=O)[C@H](Cc1ccc(O)cc1)NC(=O)[C@H](Cc1ccc2ccccc2c1)NC(=O)c1ccco1)C(N)=O [Conjugate 9, 2-Fur^4-L-2-Nal^3-L-Tyr^2-L-Ala^1-CONH2]
IC50 ± SD (µg/mL), proliferation of HeLa cells [1, 13]: 19.2 ± 3.2 µg/mL
IC50 [1, 14]: 35.4 ± 5.89 µM

C[C@H](NC(=O)[C@H](Cc1ccc2ccccc2c1)NC(=O)[C@H](Cc1ccc2ccccc2c1)NC(=O)c1ccco1)C(N)=O [Conjugate 5, 2-Fur^4-L-2-Nal^3-L-2-Nal^2-L-Ala^1-CONH2]
IC50 ± SD (µg/mL), proliferation of HeLa cells [1, 13]: 2.59 ± 0.30 µg/mL
IC50 [1, 14]: 4.49 ± 0.52 µM

C[C@H](NC(=O)[C@H](C)NC(=O)[C@H](Cc1ccc2ccccc2c1)NC(=O)c1ccco1)C(N)=O [Conjugate 3, 2-Fur^4-L-2-Nal^3-L-Ala^2-L-Ala^1-CONH2]
IC50 ± SD (µg/mL), proliferation of HeLa cells [1, 13]: 21.1 ± 0.60 µg/mL
IC50 [1, 14]: 46.8 ± 1.33 µM
